Tests used:
[1] = molecular target: T1, homomeric KCNQ2 channels (Homo sapiens, UniProt O43526); test: Homomeric KCNQ2 channels expressed in CHO cells, patch-clamp; assay type: cell-based; conditions: 50 μM
T1 construct: expressed in transfected cells; host or cells: CHO cells

[2] = molecular target: T2, homomeric KCNQ3 (Homo sapiens, UniProt O43525); test: Homomeric KCNQ3 channels expressed in CHO cells, patch-clamp; assay type: cell-based; conditions: 50 μM
T2 construct: expressed in transfected cells; host or cells: CHO cells

[3] = molecular target: KCNQ2/Q3 (Homo sapiens, UniProt O43525+O43526); test: Opener potency on KCNQ2/Q3 by leftward shift of half-activation potential (ΔV50) versus concentration, Hill fit; assay type: cell-based; parameters: expressed in transfected cells; conditions: compound alone
[4] = molecular target: T3, KCNQ1 (Homo sapiens, UniProt P51787); test: KCNQ1 current amplitude in Xenopus oocytes; assay type: cell-based; conditions: 50 μM, test potentials −50 to 0 mV, data not shown
T3 construct: expressed in transfected cells; host or cells: Xenopus oocytes (cRNA microinjection)
Experimental: Briefly, two-electrode voltage-clamp measurements were performed 3-5 days following cRNA microinjection into oocytes. Oocytes were bathed in a modified ND96 solution containing (in mM): 96 NaCl, 2 KCl, 1 MgCl2, 0.1 CaCl2 and 5 HEPES titrated to pH=7.4 with NaOH. Whole-cell currents were recorded at room temperature (20° C.-22° C.) using a GeneClamp 500 amplifier (Axon Instruments, Foster City, Calif., USA). […] Current signals were filtered at 0.5 kHz and digitized at 2 kHz.
Data are expressed as mean±SEM of 5-8 separate experiments.
The current amplitude of the various channels was measured from a −80 mV holding potential.

[5] = system: CA1 pyramidal neurons; test: Bursting and spike ADP of CA1 pyramidal neurons in rat hippocampal slices, current-clamp; assay type: cell-based
Experimental: Using selective blockers and openers, it was recently shown that M-channels critically modulate the firing pattern of pyramidal hippocampal neurons by controlling the strength, duration and escalation into bursts of spike after depolarization (Yue and Yaari J. Neurosci., 24(19):4614-24, 2004).
To evaluate the effect of Compound 6 on the spike ADP, a brief depolarizing current pulse was injected to the neurons to elicit a solitary spike.

[6] = system: small DRG neurons; test: Spiking activity of DRG neurons, current-clamp; assay type: cell-based, mouse
Experimental: Dorsal root ganglion (DRG) neurons were dissected from 2-4 days-old ICR mice that were decapitated. DRGs were placed in Hank's balanced saline solution (HBSS) and were prepared by enzymatic dissociation. Briefly, cells were incubated for 30 minutes in 5 mg/ml dispase (Sigma), 2 mg/ml collagenase type 1A (Sigma) and 0.1 mg/ml DNase (Invitrogen/Gibco) in calcium and magnesium-free HBSS, and the ganglia were thereafter mechanically triturated with a firepolished glass Pasteur pipette. The ganglia were then centrifuged for 5 minutes at 80×g and resuspended in DMEM supplemented with 2 mM L-glutamine, 16.5 mM NaCO3, 6 g/l glucose, 5 ml penicillin/streptomycin and 10% fetal calf serum. For electrophysiological recording, dissociated neurons were plated on 13 mm glass coverslips previously coated with poly-D-lysine (1 mg/ml) and laminin (10 μg/ml) and were used after 2-6 days in culture.
For current measurements in CHO cells, recordings were performed 40 hours following transfection, using the whole-cell configuration of the patch-clamp technique [Hamill et al., Nature 294: 462-464 (1981)]. Signals were amplified using an Axopatch 200B patch-clamp amplifier (Axon Instruments, Foster City, Calif., USA), sampled at 2 kHz and filtered at 800 Hz via a 4-pole Bessel low pass filter. Data were acquired using pClamp 8.1 software (Axon Instruments, Foster City, Calif., USA) and an Elonex Pentium III computer in conjunction with a DigiData 1322A interface (Axon Instruments, Foster City, Calif., USA). The patch pipettes were pulled from borosilicate glass (Warner Instrument. Corp., Hamden, Conn., USA) with a resistance of 2-5 MΩ and were filled with (in mM): 130 KCl, 1 MgCl2, 5 K2ATP, 5 EGTA, 10 HEPES, adjusted with KOH at pH 7.4 (290 mOsm). The external solution contained (in [mM]): 140 NaCl, 4 KCl, 1.8 CaCl2, 1.2 MgCl2, 11 glucose, 5.5 HEPES, adjusted with NaOH at pH 7.4 (310 mOsm). Series resistances (3-13 MΩ) were compensated (75-90%) and periodically monitored. […]

Question: Which results are given for Cc1ccc(Cl)c(Nc2ccccc2C(=O)O)c1Cl [Compound 1, Meclofenamic acid]?
Answer: leftward shift in the activation curve of KCNQ2 channels ([1]; CHO cells): −26.9 mV; increase of KCNQ2 current amplitude ([1]; stepped from −85 mV to −40 mV): 240±26%; time constant of deactivation τdeact of KCNQ2 with compound ([1]; control 92.6±3.9 msec): 152.7 ± 4.9 ms; V50 of KCNQ2 activation with compound ([1]; control −23.6±2.2 mV): −50.5±1.4 mV; leftward shift of the activation curve of KCNQ3 channels ([2]; CHO cells): −15 mV; increase of KCNQ3 current amplitude ([2]; stepped from −85 mV to −40 mV): 120±4%; τdeact of KCNQ3 with compound ([2]; control 319.6±40.8 msec): 317.2 ± 30.2 ms; V50 of KCNQ3 activation with compound ([2]; control −39.0±3.5 mV): −54.0±2.0 mV; Hill coefficient ηH ([3]; Hill fit): 2.1±0.5; EC50 ([3]; Hill fit, read-out: EC50 of leftward shift of the half-activation potential (ΔV50)): 25.7 ± 1.1 µM; maximal left-shift of the half-activation potential (ΔV50) [3]: −20±3 mV; effect on homomeric KCNQ1 currents [4]: not enhanced

Question: What does the source list for O=C(Cc1ccccc1Nc1c(Cl)cccc1Cl)NCCOCCO [Compound 6]?
Answer: effect on burst spiking ([5]; 25 μM, long suprathreshold depolarizing current pulses): suppression of the burst; ADP size with compound ([5]; solitary spike, control 193.8±49.7 mV msec): 117.1±40.6 mV msec; effect on trains of evoked spikes ([6]; 15 μM, 75 pA, 400 ms): potently and reversibly blocked; effect on solitary evoked spike ([6]; 300 pA, 1 ms pulse): reversibly prevent the generation of the single action potential

— patent US8618169B2, “Derivatives of N-phenylanthranilic acid and 2-benzimidazolone as potassium channel and/or neuron activity modulators” (Ramot at Tel-Aviv University Ltd., priority 2002, dated 2013)
